Bounds are passed on as bounds.

Four compounds from article PMC12693167, “Design, Synthesis and Anticancer Activity of 6-Substituted-1-(3,4,5-trimethoxyphenyl)-1H-indole Against Tubulin Polymerisation” (Molecules, 2025) can be followed below.

T1 sequence (P02554 whole entry): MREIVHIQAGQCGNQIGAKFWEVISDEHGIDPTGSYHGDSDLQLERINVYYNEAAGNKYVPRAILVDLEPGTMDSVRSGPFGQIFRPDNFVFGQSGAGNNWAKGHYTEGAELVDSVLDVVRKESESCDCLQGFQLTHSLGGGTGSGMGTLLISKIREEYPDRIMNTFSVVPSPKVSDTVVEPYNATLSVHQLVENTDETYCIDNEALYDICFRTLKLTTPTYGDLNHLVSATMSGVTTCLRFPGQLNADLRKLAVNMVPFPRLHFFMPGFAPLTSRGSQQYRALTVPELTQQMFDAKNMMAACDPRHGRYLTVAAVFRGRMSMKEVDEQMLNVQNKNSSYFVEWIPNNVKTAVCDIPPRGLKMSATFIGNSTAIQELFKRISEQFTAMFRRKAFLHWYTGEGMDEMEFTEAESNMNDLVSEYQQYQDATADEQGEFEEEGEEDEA
T1 sequence (P02550 whole entry partner): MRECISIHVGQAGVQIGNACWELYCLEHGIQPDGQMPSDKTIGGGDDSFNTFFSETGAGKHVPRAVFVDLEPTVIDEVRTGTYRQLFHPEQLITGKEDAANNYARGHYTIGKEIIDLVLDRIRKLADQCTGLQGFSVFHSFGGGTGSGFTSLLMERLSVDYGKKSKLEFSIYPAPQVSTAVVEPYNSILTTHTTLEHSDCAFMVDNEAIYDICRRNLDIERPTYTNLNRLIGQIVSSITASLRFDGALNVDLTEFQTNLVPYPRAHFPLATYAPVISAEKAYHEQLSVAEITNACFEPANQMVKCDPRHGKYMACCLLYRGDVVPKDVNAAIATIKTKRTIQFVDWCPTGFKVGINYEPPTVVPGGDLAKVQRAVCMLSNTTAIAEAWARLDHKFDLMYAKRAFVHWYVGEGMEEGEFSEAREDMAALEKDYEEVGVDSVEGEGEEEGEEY

The test system of one assay is A375 cells. The assay is described as follows: CCK-8 antiproliferative assay, A375. Format: cell-based. As to conditions: Homo sapiens, A-375; cell viability (CCK-8), 48 h. The protocol: (§1) To evaluate the anticancer potential of the synthesized compounds, a panel of six human and murine cancer cell lines representing different tissue origins was selected, including MCF-7 (human breast adenocarcinoma), MDA-MB-231 (human triple-negative breast cancer), A549 (human non-small cell lung cancer), HeLa (human cervical cancer), A375 (human melanoma), and B16-F10 (murine melanoma) (Table 2). […] DMSO was used as the vehicle control, and all experiments were performed in triplicate to ensure reproducibility.
(§2) Human breast cancer cells (MCF-7), human lung cancer cells (A549), human cervical cancer cells (HeLa), human triple-negative breast cancer cells (MDA-MB-231), and human malignant melanoma cells (A375) were cultured in DMEM. Mouse melanoma cells (B16F10) were maintained in RPMI-1640 medium. All media were supplemented with 10% fetal bovine serum and 1% penicillin-streptomycin (Life Technologies, Carlsbad, CA, USA) and maintained at 37 °C in a humidified atmosphere with 5% CO2.
(§3) The cytotoxicity of the test compounds was evaluated against MCF-7, A549, HeLa, MDA-MB-231, A375, and B16F10 using the CCK-8 assay. Cells were seeded into 96-well plates at a density of 5000 cells/well. After removing the medium, 100 μL of medium with 0.1% DMSO containing test compounds at different concentrations was added to each well and incubated at 37 °C for another 48 h. The CCK-8 solution was added and incubated for another 1 h, and then, the absorbance was detected with a microplate reader at a wavelength of 450 nm. The IC50 values were calculated by nonlinear regression analysis using GraphPad Prism 8.0.2. All the experiments were repeated at least three times.
For orientation: Tetrazolium assays rely on reduction of a dye to a coloured formazan, in cell work by metabolically active cells.
In general, IC50 refers to the concentration that inhibits the measured activity by half. Higher therefore signals weaker potency in that assay. On to `COc1cc(-n2ccc3ccc(-c4nc5ccccc5s4)cc32)cc(OC)c1OC` [3p, 2-(1-(3,4,5-trimethoxyphenyl)-1H-indol-6-yl)benzo[d]thiazole], for which the IC50 was > 100 µM.
Take `CCc1ccc(-c2ccc3ccn(-c4cc(OC)c(OC)c(OC)c4)c3c2)cc1` [3e, 6-(4-ethylphenyl)-1-(3,4,5-trimethoxyphenyl)-1H-indole]: the IC50 was > 100 µM.
On the same count and under the same terms, the figure for `COc1cc(-n2ccc3ccc(-c4cccc(C#N)c4)cc32)cc(OC)c1OC` [3b, 3-(1-(3,4,5-trimethoxyphenyl)-1H-indol-6-yl)benzonitrile] is 27.5 ± 2.5 µM; for `COc1cc(-n2ccc3ccc(-c4ccc(C#N)cc4F)cc32)cc(OC)c1OC` [3n, 3-fluoro-4-(1-(3,4,5-trimethoxyphenyl)-1H-indol-6-yl)benzonitrile] it is 16.1 ± 0.38 µM.

For the next assay, the system named is A549 cells. In words: CCK-8 antiproliferative assay, A549. It counts as cell-based. The settings on record: Homo sapiens, cell viability (CCK-8), 48 h. How it is done:
as §1, §2, §3
Consider `COc1cc(-n2ccc3ccc(-c4nc5ccccc5s4)cc32)cc(OC)c1OC` [3p, 2-(1-(3,4,5-trimethoxyphenyl)-1H-indol-6-yl)benzo[d]thiazole], for which the IC50 was > 100 µM.
`CCc1ccc(-c2ccc3ccn(-c4cc(OC)c(OC)c(OC)c4)c3c2)cc1` [3e, 6-(4-ethylphenyl)-1-(3,4,5-trimethoxyphenyl)-1H-indole]: the IC50 is > 100 µM.
The same measure, in the same setting: the figure for `COc1cc(-n2ccc3ccc(-c4cccc(C#N)c4)cc32)cc(OC)c1OC` [3b, 3-(1-(3,4,5-trimethoxyphenyl)-1H-indol-6-yl)benzonitrile] is 41.2 ± 3.42 µM.
Still for that read-out and setting: the figure for `COc1cc(-n2ccc3ccc(-c4ccc(C#N)cc4F)cc32)cc(OC)c1OC` [3n, 3-fluoro-4-(1-(3,4,5-trimethoxyphenyl)-1H-indol-6-yl)benzonitrile] is 48 ± 2.56 µM.

A further assay concerns MCF-7 cells. The assay is described as follows: CCK-8 antiproliferative assay, MCF-7. The settings on record: Homo sapiens, MCF7; cell viability (CCK-8), 48 h. It counts as cell-based. How it is done:
as §1, §2, §3
As to `COc1cc(-n2ccc3ccc(-c4nc5ccccc5s4)cc32)cc(OC)c1OC` [3p, 2-(1-(3,4,5-trimethoxyphenyl)-1H-indol-6-yl)benzo[d]thiazole], the IC50 is > 100 µM.
The same measure, in the same setting: next, `CCc1ccc(-c2ccc3ccn(-c4cc(OC)c(OC)c(OC)c4)c3c2)cc1` [3e, 6-(4-ethylphenyl)-1-(3,4,5-trimethoxyphenyl)-1H-indole]: > 100 µM; `COc1cc(-n2ccc3ccc(-c4cccc(C#N)c4)cc32)cc(OC)c1OC` [3b, 3-(1-(3,4,5-trimethoxyphenyl)-1H-indol-6-yl)benzonitrile]: 3.33 ± 0.28 µM.
On the same count and under the same terms, the figure for `COc1cc(-n2ccc3ccc(-c4ccc(C#N)cc4F)cc32)cc(OC)c1OC` [3n, 3-fluoro-4-(1-(3,4,5-trimethoxyphenyl)-1H-indol-6-yl)benzonitrile] is 14.2 ± 0.51 µM.

A further assay has as its system HeLa cells. The assay is described as follows: CCK-8 antiproliferative assay, HeLa. It counts as cell-based. As to conditions: Homo sapiens, cell viability (CCK-8), 48 h. The protocol: as §1, §2, §3
Take `COc1cc(-n2ccc3ccc(-c4nc5ccccc5s4)cc32)cc(OC)c1OC` [3p, 2-(1-(3,4,5-trimethoxyphenyl)-1H-indol-6-yl)benzo[d]thiazole]: the IC50 is > 100 µM.
Same read-out and setting: next, `CCc1ccc(-c2ccc3ccn(-c4cc(OC)c(OC)c(OC)c4)c3c2)cc1` [3e, 6-(4-ethylphenyl)-1-(3,4,5-trimethoxyphenyl)-1H-indole]: > 100 µM; `COc1cc(-n2ccc3ccc(-c4cccc(C#N)c4)cc32)cc(OC)c1OC` [3b, 3-(1-(3,4,5-trimethoxyphenyl)-1H-indol-6-yl)benzonitrile]: 38.5 ± 2.25 µM.
Still for that read-out and setting: the figure for `COc1cc(-n2ccc3ccc(-c4ccc(C#N)cc4F)cc32)cc(OC)c1OC` [3n, 3-fluoro-4-(1-(3,4,5-trimethoxyphenyl)-1H-indol-6-yl)benzonitrile] is 65 ± 3.2 µM.

A further assay concerns MDA-MB-231 cells. In words: CCK-8 antiproliferative assay, MDA-MB-231. Format: cell-based. As to conditions: Homo sapiens, cell viability (CCK-8), 48 h. How it is done: as §1, §2, §3
On to `COc1cc(-n2ccc3ccc(-c4nc5ccccc5s4)cc32)cc(OC)c1OC` [3p, 2-(1-(3,4,5-trimethoxyphenyl)-1H-indol-6-yl)benzo[d]thiazole], for which the IC50 was > 100 µM.
Take `CCc1ccc(-c2ccc3ccn(-c4cc(OC)c(OC)c(OC)c4)c3c2)cc1` [3e, 6-(4-ethylphenyl)-1-(3,4,5-trimethoxyphenyl)-1H-indole]: the IC50 was > 100 µM.
Same read-out and setting: next, `COc1cc(-n2ccc3ccc(-c4cccc(C#N)c4)cc32)cc(OC)c1OC` [3b, 3-(1-(3,4,5-trimethoxyphenyl)-1H-indol-6-yl)benzonitrile]: 42.9 ± 3.13 µM.
On the same count and under the same terms, next, `COc1cc(-n2ccc3ccc(-c4ccc(C#N)cc4F)cc32)cc(OC)c1OC` [3n, 3-fluoro-4-(1-(3,4,5-trimethoxyphenyl)-1H-indol-6-yl)benzonitrile]: 41.4 ± 1.21 µM.

The next assay addresses T1, purified porcine brain tubulin (Sus scrofa, UniProt P02554).
T1 construct: purified porcine brain tubulin; from tissue; host or cells: porcine brain
In words: Biolayer interferometry (BLI) binding to tubulin. The settings on record: immobilized tubulin, 1:1 binding model, mean ± SD, triplicate. How it is done: To detect the direct interaction between the synthesized compounds and tubulin, biolayer interferometry (BLI) experiments were performed using purified porcine brain tubulin immobilized on Super Streptavidin (SSA) biosensor [30]. […] Association and dissociation kinetics were monitored in real time, and equilibrium dissociation constants (KD) were determined by global fitting of the sensorgrams to a 1:1 binding model. All measurements were conducted in triplicate, and results are reported as mean ± SD.
BLI assays were performed on an Octet RED96 instrument (FortéBio, Pall Life Sciences, Menlo Park, CA, USA) at 25 °C in PBS buffer supplemented with 0.02% (v/v) Tween-20 as the running buffer. Biotinylated tubulin proteins (3 μg/mL) were immobilized onto Super Streptavidin (SSA) biosensors. Association and dissociation were monitored for 60 s each. […] Reference subtraction was performed using sensors incubated in running buffer without protein loading to correct for baseline drift. Data were analyzed using Octet Data Analysis software (version 9.0), and equilibrium dissociation constants (KD) were determined by fitting the curves to a 1:1 binding model. All measurements were performed in triplicate, and results are reported as mean ± SD.
BLI assays were performed on an Octet RED96 instrument (FortéBio, Pall Life Sciences) at 25 °C in PBS buffer supplemented with 0.02% (v/v) Tween-20 as the running buffer. Biotinylated tubulin proteins (3 μg/mL) were immobilized onto Super Streptavidin (SSA) biosensors. Association and dissociation were monitored for 60 s […]
Reference subtraction was performed using sensors incubated in running buffer without protein loading to correct for baseline drift. Data were analyzed using Octet Data Analysis software (version 9.0), and equilibrium dissociation constants (KD) were determined by fitting the curves to a 1:1 binding model. All measurements were performed in triplicate, and results are reported as mean ± SD.
What is called Kd is the constant that tells how readily two partners part at equilibrium. Low values mean higher affinity, high ones lower affinity. As to `COc1cc(-n2ccc3ccc(-c4nc5ccccc5s4)cc32)cc(OC)c1OC` [3p, 2-(1-(3,4,5-trimethoxyphenyl)-1H-indol-6-yl)benzo[d]thiazole], the KD entry is on record as “undetectable binding” and the Kd was > 200 µM.
Take `CCc1ccc(-c2ccc3ccn(-c4cc(OC)c(OC)c(OC)c4)c3c2)cc1` [3e, 6-(4-ethylphenyl)-1-(3,4,5-trimethoxyphenyl)-1H-indole]: the Kd is 110 ± 14.5 µM.
Regarding `COc1cc(-n2ccc3ccc(-c4cccc(C#N)c4)cc32)cc(OC)c1OC` [3b, 3-(1-(3,4,5-trimethoxyphenyl)-1H-indol-6-yl)benzonitrile], the KD entry was “low micromolar range” and the Kd was determined as 29 ± 4.1 µM.
Compound `COc1cc(-n2ccc3ccc(-c4ccc(C#N)cc4F)cc32)cc(OC)c1OC` [3n, 3-fluoro-4-(1-(3,4,5-trimethoxyphenyl)-1H-indol-6-yl)benzonitrile] registered a Kd of 220 ± 30.8 µM.

A further assay concerns B16-F10 cells. In words: CCK-8 antiproliferative assay, B16-F10. The settings on record: Mus musculus, cell viability (CCK-8), 48 h. Format: cell-based, murine. The protocol:
as §1, §2, §3
With `COc1cc(-n2ccc3ccc(-c4nc5ccccc5s4)cc32)cc(OC)c1OC` [3p, 2-(1-(3,4,5-trimethoxyphenyl)-1H-indol-6-yl)benzo[d]thiazole], the 50% inhibitory concentration (IC50) was > 100 µM.
On the same count and under the same terms, the figure for `CCc1ccc(-c2ccc3ccn(-c4cc(OC)c(OC)c(OC)c4)c3c2)cc1` [3e, 6-(4-ethylphenyl)-1-(3,4,5-trimethoxyphenyl)-1H-indole] is > 100 µM; for `COc1cc(-n2ccc3ccc(-c4cccc(C#N)c4)cc32)cc(OC)c1OC` [3b, 3-(1-(3,4,5-trimethoxyphenyl)-1H-indol-6-yl)benzonitrile] it is 3.78 ± 0.14 µM; for `COc1cc(-n2ccc3ccc(-c4ccc(C#N)cc4F)cc32)cc(OC)c1OC` [3n, 3-fluoro-4-(1-(3,4,5-trimethoxyphenyl)-1H-indol-6-yl)benzonitrile] it is 68.9 ± 3.17 µM.
